Reference: patent US20100055065A1, “AGENT FOR INHIBITING PRODUCTION OF HEPATITIS C VIRUS AND ITS USE” (MIYAZAKI PREFECTURAL INDUSTRIAL SUPPORT FOUNDATION, priority 2008, published 2010)
Converted amounts (≈) assume the structure as drawn.

Columns and labels:
HCV replicon = test: HCV replication suppressive activity test (replicon assay, luciferase); type: cell-based, Hepatitis C virus; settings: for HCV replication suppressive (inhibitory) activity, in words: replicon cell assay
Experimental: The HCV-replicon cell line was established by transducing sub-genomic RNA into human hepatoma Huh-7 cell cytoplasm. The sub-genomic RNA was prepared by replacing the translated region of HCV genome RNA structural proteins with firefly luciferase gene, internal ribosome entry site (IRES) of the encephalomyocarditis virus and neomycin phosphotransferase gene. The cell line obtained was used for assessment of production of HCV replicon RNA. The production quantity of HCV replicon RNA was measured by the luciferase assay method. (Lohmann et al., Science 285, (1999) 110; Sakamoto et al. Nat. Chem. Biol. 1, (2005) 333)
In order to determine replication quantity of HCV-RNA, luciferase genes from firefly were transduced into HCV-RNA as a reporter gene. The gene transduction was carried out according to the method of Krieger et al. (See; Krieger et al. J. virol. 75, (2001) 4614) in such manner that luciferase genes were fused together neomycin-resistant genes beneath the IRES of HCV gene.
With this HCV subgenome, the replication efficiency of HCV could be estimated by measuring luciferase activity in the HCV replicon cells. The HCV replicon cells used were routinely grown in DMEM (Gibco cat. No. 10569-010) supplemented with Glutamax (Invitrogen), 10% fetal bovine serum (FBS), 1% penicillin/streptomycin (Invitrogen) and 500 μg/ml G418 (Invitrogen). The cells were maintained at 37° C. in humidified atmosphere containing 5% CO2. For the HCV replication assay, the replicon cells in DMEM supplemented with Glutamax and 5% FBS were seeded in a 96-well plate so as to fill every well with 5000 cells, and incubated for 24 hours.
The test was carried out in such a way that the HCV replicon cells were cultured for 72 hours after adding test samples in different concentrations. The Quantity of the luciferase activity was determined by the Steady-Glo Luciferase Assay System (Promega) according to the manufacture's instructions and the luminescence was measured by DTX 800 Multimode Detector (Beckman). In this test, the replication inhibitory activity is expressed as a concentration of samples required for inhibiting 50 percents of the replication of HCV replicon cell (IC50). Specific activity is a reciprocal number of IC50 (1/IC50). Total activity is calculated by multiplying the yield weight of the HCV replicon cell by specific activity.

[1] = Cytotoxicity test (Cell Counting Kit-8); type: cell-based, human; settings: human; HCV replicon cells; Table 1
Experimental: (§1) The cytotoxicity of the samples was measured by Cell Counting Kit-8 (CCK-8; Dojindo Molecular Technologies) according to the manufacture's instructions. Briefly, 10 μl/a well of CCK-8 reagent were added to the HCV replicon cells cultured in a 96-well plate and then incubated at 37° C. for 60 min. The absorbance of each well was measured at 450 nm with a reference wavelength at 650 nm using an Emax Precision microplate reader (Molecular Devices Inc.). Cell viability was calculated as relative index of control cells and effects of samples and was expressed as the concentration of samples required for 50% cytotoxicity of the cells (CC50).

[2] = system: HCV replicon cells (human hepatoma Huh-7); test: Cytotoxicity test (Cell Counting Kit-8); type: cell-based; settings: Table 1
Experimental: as §1

[3] = HCV replicon cells, 72 hours, Table 1

Molecule | HCV replication suppressive (inhibitory) activity, in words (HCV replicon) | Replication suppressive activity IC50 (HCV replicon; [3]) [µg/mL] | Ratio CC50/IC50 (HCV replicon; Table 1) | IC50 (HCV replicon; Hepatitis C virus, HCV replicon cells, 72 hours, Table 1) [µg/mL] | CC50 [1] [µg/mL] | Cytotoxicity CC50 [2] [µg/mL]
O=C(/C=C/c1ccc(O)c(O)c1)O[C@@H]1C[C@](O)(C(=O)O)C[C@@H](O)[C@H]1O [chlorogenic acid] | seem not to have the inhibition activity |  |  |  |  | 
Catechin | no anti-HCV production activity | 16.18 | 6.2 |  |  | 
Oc1cc(O)c2c(c1)O[C@H](c1ccc(O)c(O)c1)[C@H](O)C2 [Epicatechin] |  |  | 4.2 | 27.3 (≈ 94.1 µM) | 114 (≈ 392 µM) | 
Oc1cc(O)c2c(c1)O[C@H](c1ccc(O)c(O)c1)[C@H](O)[C@H]2c1c(O)cc(O)c2c1O[C@H](c1ccc(O)c(O)c1)[C@H](O)C2 [Procyanidin B2] | no anti-HCV production activity | >25.0 |  |  |  | >25.0
